Assay results taken from patent US7741340B2, “Hydroxy piperidine derivatives to treat gaucher disease” (Amicus Therapeutics, Inc., priority 2003, dated 2010).
pIC50: −log10 of the molar value.

How the values were obtained:
human GCase = human GCase (Homo sapiens, UniProt P04062); experiment: Inhibitory activity against GCase (4-methylumbelliferyl β-glucoside substrate); format: biochemical; conditions: for pIC50: 4-methylumbelliferyl β-glucoside at 3 mM, pH 5.2, 37° C., 30 min
[1] = test system: Fibroblasts established from Gaucher patients with N370S/N370S mutation; experiment: Chaperone rescue of residual GCase activity in Gaucher fibroblasts; format: cell-based, human; conditions: N370S homozygous fibroblasts, cultured 4 days with compound, at optimal concentration
[2] = shortly after the start of the treatment; cited from earlier work

Sequence of human GCase (P04062 40-536): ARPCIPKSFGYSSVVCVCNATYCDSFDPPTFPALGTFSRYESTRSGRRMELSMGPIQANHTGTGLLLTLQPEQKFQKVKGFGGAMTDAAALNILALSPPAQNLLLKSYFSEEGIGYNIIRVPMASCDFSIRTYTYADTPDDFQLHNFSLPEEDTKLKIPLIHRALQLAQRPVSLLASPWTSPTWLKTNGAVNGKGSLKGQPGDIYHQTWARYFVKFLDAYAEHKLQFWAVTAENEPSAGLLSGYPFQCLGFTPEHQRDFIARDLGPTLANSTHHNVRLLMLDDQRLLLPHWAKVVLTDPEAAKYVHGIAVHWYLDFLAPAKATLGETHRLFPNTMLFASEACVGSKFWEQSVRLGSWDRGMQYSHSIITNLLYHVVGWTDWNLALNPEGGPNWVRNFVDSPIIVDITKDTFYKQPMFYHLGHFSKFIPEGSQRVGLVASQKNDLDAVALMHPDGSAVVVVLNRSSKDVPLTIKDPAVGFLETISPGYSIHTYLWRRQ

Compound | pIC50 (human GCase) | further results
N-nonyl hydroxypiperidine [reference compound] | < 4.00 | –
N-butyl hydroxypiperidine [reference compound] | 4.36 | –
CCCCCC[C@@H]1NC[C@@H](O)[C@H](O)[C@H]1CO [Compound 12, (3R, 4R, 5R, 6S)-5-(Hydroxymethyl)-6-n-hexyl-3,4-dihydroxypiperidine] | 8.38 | increase in potency over IFG (human GCase; relative to IFG): approximately 13 fold
CCCCCCC[C@@H]1NC[C@@H](O)[C@H](O)[C@H]1CO [Compound 13, (3R, 4R, 5R, 6S)-5-(Hydroxymethyl)-6-n-heptyl-3,4-dihydroxypiperidine] | 8.74 | –
CCCC[C@@H]1NC[C@@H](O)[C@H](O)[C@H]1CO [Compound 11, (3R, 4R, 5R, 6S)-5-(Hydroxymethyl)-6-n-butyl-3,4-dihydroxypiperidine] | 6.80 | effect of 6-C substitution on potency towards GCase (human GCase; compared with the parent hydroxypiperidine): did not affect the potency
OC[C@H]1CNC[C@@H](O)[C@@H]1O [hydroxypiperidine, isofagomine] | – | increase of residual enzyme activity in patient cells [1]: approximately 2 fold
CCCCN1CC(O)C(O)C(O)C1CO (stereo not shown) [N-butyl 1-deoxynojirimycin] | – | patients with diarrhea (most frequent adverse effect) [2]: 79%
CCCCCCCC[C@@H]1NC[C@@H](O)[C@H](O)[C@H]1CO [Compound 14, (3R, 4R, 5R, 6S)-5-(Hydroxymethyl)-6-n-octyl-3,4-dihydroxypiperidine] | 9.10 | –
